Assay [1] relates to Haemonchus contortus. The assay can be described thus: In-vivo test on Mongolian gerbils using peroral application. Details: species or system Mongolian gerbils (Meriones unguiculatus). The note with it: repeated test 2a, gerbil, 0.32 mg/kg. On the procedure:
(§1) Six to eight week old Mongolian gerbils are infected through a stomach tube with ca. 2000 third instar larvae each of T. colubriformis and H. contortus. 6 days after infection, the gerbils are treated by peroral application with the test compounds, dissolved in a mixture of 2 parts DMSO and 1 part polyethylene glycol (PEG 400). On day 9 (3 days after treatment), when most of the H. contortus that are still present are late 4th instar larvae and most of the T. colubriformis are immature adults, the gerbils are killed in order to count the worms. The efficacy is calculated as the % reduction of the number of worms in each gerbil, compared with the geometric average of number of worms from 6 infected and untreated gerbils.
(§2) The above described in-vivo test on Trichostrongylus colubriformis (Tc) and Haemonchus contortus ([…]) was repeated with compounds 1.2, 1.3 and 1.5 from Table 1 and with the compounds of Examples 1a and 3a on pages 22-25 of WO 2008/96231.

Assay [2] relates to Trichostrongylus colubriformis. The description is as above. Details: species or system Mongolian gerbils (Meriones unguiculatus). Conditions: repeated test 2a, gerbil, 0.32 mg/kg. As for the experimental part:
as §1, §2

Assay [3] concerns Haemonchus contortus. The assay can be described thus: Activity in vitro (egg hatch / larval development, 96-well agar plate). The note with it: 0.1 ppm; 6 days at 25° C.; reduced egg hatch, reduced development of L3, or paralysis & death of larvae. On the procedure: (§3) Freshly harvested and cleaned nematode eggs are used to seed a suitably formatted 96-well plate containing the test substances to be evaluated for antiparasitic activity. Each compound is tested by serial dilution in order to determine its MED. The test compounds are embedded in an agar-based nutritive medium allowing the full development of eggs through to 3rd instar larvae. The plates are incubated for 6 days at 25° C. and 60% relative humidity (RH). Egg-hatching and ensuing larval development are recorded to identify a possible nematodicidal activity. Efficacy is expressed in percent reduced egg hatch, reduced development of L3, or paralysis & death of larvae of all stages.

The subject of assay [4] is Trichostrongylus colubriformis. The description is as above. The note with it: 0.1 ppm; 6 days at 25° C.; reduced egg hatch, reduced development of L3, or paralysis & death of larvae. As for the experimental part: as §3

As to `CC(C#N)(COc1cc(C#N)ccc1C(F)(F)F)NC(=O)c1ccc(S(F)(F)(F)(F)F)cc1` (stereo not drawn) [reference compound], the “Efficacy against Hc [%]” value in the assay on Haemonchus contortus [1] was 85%. Moreover, the “Efficacy against Tc [%]” value in assay [2] is reported as 33%.
With `CC(C#N)(COc1cc(C#N)ccc1Oc1ccc(OC(F)(F)F)cc1Cl)NC(=O)c1ccc(S(F)(F)(F)(F)F)cc1` (stereo not drawn) [Compound 1.5, N-[1-cyano-1-methyl-2-(5-cyano-2-{2-chloro-4-trifluoromethoxy-phenoxy}-phenoxy)-ethyl]-4-pentafluorothio-benzamide], in the assay on Haemonchus contortus [1], the “Efficacy against Hc [%]” value was 100%. In addition, the “Efficacy against Tc [%]” value in assay [2] worked out at 99%.
Taken in the same sequence, the figures for `CC(C#N)(COc1cc(C#N)ccc1Oc1ccc(Cl)cc1Cl)NC(=O)c1ccc(S(F)(F)(F)(F)F)cc1` (stereo not drawn) [Compound 1.2, N-[1-cyano-1-methyl-2-(5-cyano-2-{2,4-dichlorophenoxy}-phenoxy)-ethyl]-4-pentafluorothio-benzamide] were 98% and 100%.
Taken in the same sequence, the figures for `CC(C#N)(COc1ccc(C#N)cc1C(F)(F)F)NC(=O)c1ccc(S(F)(F)(F)(F)F)cc1` (stereo not drawn) [reference compound] were 40% and 23%.
In the case of `CC(C#N)(COc1cc(C#N)ccc1Oc1ccc(F)cc1Br)NC(=O)c1ccc(S(F)(F)(F)(F)F)cc1` (stereo not drawn) [Compound 1.3, N-[1-cyano-1-methyl-2-(5-cyano-2-{2-bromo-4-fluorophenoxy}-phenoxy)-ethyl]-4-pentafluorothio-benzamide], the “Efficacy against Hc [%]” value in the assay with Haemonchus contortus [1] is listed as 100%. The “Efficacy against Tc [%]” value in assay [2] is 98%.
`CC(C#N)(COc1cc(Cl)ccc1Oc1ccc(Cl)cc1Cl)NC(=O)c1ccc(S(C)(=O)=O)cc1` (stereo not drawn) [Compound 1.10, N-[1-cyano-1-methyl-2-(5-chloro-2-{2,4-dichlorophenoxy}-phenoxy)-ethyl]-4-methylsulfonyl-benzamide]: the “efficacy against Haemonchus contortus” value in the assay on Haemonchus contortus [3] is listed as “more than 90%”. In addition, the “efficacy against Trichostrongylus colubriformis” value in assay [4] was “more than 90%”.

The values above are taken from patent publication US8168681B2, “Amidoacetonitrile compounds and pesticidal composition thereof” (Novartis AG, priority 2008, dated 2012).
